Data on 18 compounds can be found in publication PMC6753678, “Fueling Open Innovation for Malaria Transmission-Blocking Drugs: Hundreds of Molecules Targeting Early Parasite Mosquito Stages” (Frontiers in Microbiology, 2019).

Molecules are shown by their SMILES. Read-outs that look alike come from different tables or passages of the source.

Series [1] concerns 3D7-strain P. falciparum asexual parasites. The series is described as follows: P. falciparum asexual growth inhibition assay (Pf GIA). Type of series: cell-based, Plasmodium falciparum. The note with it: dose response confirmation; read-out: Pf asexual growth inhibition assays IC50. A digest of the protocol: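 0.25% parasitemia, 2% Hct, RPMI/HEPES/hypoxanthine/5% Albumax; compound dose response, 72 h, 37°C, 5% CO2, 5% O2, 90% N2. Freeze-thaw, then LDH assay, A650. % inhibition vs chloroquine (50 μM)/DMSO, mean of 3 independent runs.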

Series [2] has as its system HepG2 cells. Briefly: HepG2 cytotoxicity assay. The conditions noted are these: for IC50: read-out: HepG2 cytotoxicity assay IC50, dose response confirmation. A digest of the protocol: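 HepG2 cells, 2,500 per well in MEM with 10% FBS and 1% NEAA, exposed to compounds for 48 h at 37°C, 5% CO2. Viability read by fluorescence; percent inhibition relative to 50 μM doxorubicin and DMSO controls.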

In series [3] the test system is P. berghei ookinete development. The conditions noted are these: for Is compound selective in assay? Pb ODA active?: 1: YES, 0: NO; for % inhibition, Replicate A / % inhibition, Replicate B: primary screen at 1 μM.
For series [4], the system named is P. falciparum female gametocytes. Set-up: method as in Miguel-Blanco et al 2017. The note with it: ref Miguel-Blanco et al 2017; read-out: Pf FGAA IC50; cited from earlier work.
The subject of series [5] is HepG2 cells. The conditions noted are these: HepG2; ref Miguel-Blanco et al 2017; cited from earlier work.
The test system of series [6] is P. falciparum female gametocytes. Briefly: P. falciparum female gametogenesis assay (Pf FGAA). The note with it: 1: YES; 0: NO; >10-fold selectivity over cytotox.
Where [7] appears, read: HepG2 values of the three screens unified.
Where [8] appears, read: read-out: Pb ODA IC50, this manuscript.
Setting [9] is: read-out: Pb Ookinete development assay IC50, dose response confirmation.
[10] abbreviates: unified HepG2 cytotoxicity across the three screens.
Setting [11] is: unified HepG2 value across the three screens.

The IC50 is the point on the concentration scale where inhibition reaches its midpoint. Regarding `Cc1[nH]c(C)c(-c2ccc(CCc3ccc(F)cc3F)cc2)c(=O)c1Cl` [TCMDC-135462], the IC50 was 2.53 nM in series [1]; 100000 nM in the series with HepG2 cells [2]; 10 nM in series [3] (setting [8]); 11 nM in series [3] (setting [9]); 13300 nM in series [4]. In the series with HepG2 cells [2] (setting [7]), the Unified cytotox is 100.00 µM. The “Is compound selective in assay? Pb ODA active?” value in series [3] is given as 1 (1: YES). Besides, the “% inhibition, Replicate A” value in series [3] is recorded as 91.00%. In addition, the “% inhibition, Replicate B” value in series [3] amounted to 103.90%. Besides, the “HepG2 cytoxicity (Pf FGAA screen)” value in the series on HepG2 cells [5] is on record as more than 100 µM.

In the series on HepG2 cells [2] (setting [10]), `Clc1ccc(Nc2nc(NCc3ccccc3)nc(N/N=C/c3ccccn3)n2)cc1` [TCMDC-138557] gave a Unified cytotox of 13.96 µM. For the same compound, in series [4], the IC50 was 260 nM. In addition, the “Is compound selective in assay? Pf FGAA active?” value in series [6] is on record as 1 (1: YES).

`Cl.O=C(NCCCCN1CCC(c2ccc3c(c2O)CCCC3)CC1)c1ccc(NC(=O)c2ccc(Cl)cc2)cc1` [TCMDC-138645] registered a Unified cytotox in the series with HepG2 cells [2] (setting [10]) of 3.80 µM. For the same compound, the IC50 in series [4] is 1490 nM. The “Is compound selective in assay? Pf FGAA active?” value in series [6] was 0 (0: NO).

In turn, `CC(C)(C)c1ccc(CNCCOc2ccc(Nc3nnc(-c4ccc(-c5ncc[nH]5)cc4)o3)c3ccccc23)cc1.O=C(O)C(F)(F)F` [TCMDC-138667] registered a Unified cytotox with HepG2 cells [2] (setting [10]) of 5.96 µM. Besides, the IC50 in series [4] was 620 nM. Moreover, the “Is compound selective in assay? Pf FGAA active?” value in series [6] was 0 (0: NO).

With `CCc1ccc(C2CCN(CCCCNC(=O)c3ccc(NC(=O)c4ccc(Cl)cc4)cc3)CC2)c(OCCO)c1` [TCMDC-138703], the Unified cytotox in the series with HepG2 cells [2] (setting [10]) was determined as 5.37 µM. Also, the IC50 in series [4] is 2250 nM. The “Is compound selective in assay? Pf FGAA active?” value in series [6] was 0 (0: NO).

As to `COc1cc2nc(N3CCC(CNC(=O)c4ccc(-c5ccc(C(F)(F)F)cc5)cc4)CC3)nc(N)c2cc1OC` [TCMDC-138716], the Unified cytotox in the series with HepG2 cells [2] (setting [10]) worked out at 4.92 µM. For the same compound, the IC50 in series [4] is 850 nM. Also, the “Is compound selective in assay? Pf FGAA active?” value in series [6] was 0 (0: NO).

`COc1cc2nc(N3CCC(CNC(=O)c4ccc(-c5ccc(Cl)cc5)cc4)CC3)nc(N)c2cc1OC` [TCMDC-138718] gave a Unified cytotox with HepG2 cells [2] (setting [10]) of 4.22 µM. In addition, in series [4], the IC50 is 890 nM. Further, the “Is compound selective in assay? Pf FGAA active?” value in series [6] was 0 (0: NO).

`COC(=O)c1ccc(-c2ccc(C(=O)NCC3CCN(c4nc(N)c5cc(OC)c(OC)cc5n4)CC3)cc2)cc1` [TCMDC-138721] had a Unified cytotox with HepG2 cells [2] (setting [10]) of 6.10 µM. The IC50 in series [4] was 910 nM. Besides, the “Is compound selective in assay? Pf FGAA active?” value in series [6] is recorded as 0 (0: NO).

Regarding `O=C(NCCCCN1CCC(c2ccc3c(c2OCCN2CCCC2)CCCC3)CC1)c1ccc(-c2ccc(C(F)(F)F)cc2)cc1` [TCMDC-138768], the Unified cytotox in the series with HepG2 cells [2] (setting [10]) was determined as 5.39 µM. The IC50 in series [4] was 1980 nM. For the same compound, the “Is compound selective in assay? Pf FGAA active?” value in series [6] was 0 (0: NO).

On to `O=C(Nc1ccc(-c2ccccc2)c(OCCN2CCNCC2)c1)c1ccc(-c2ccc(Cl)cc2)cc1` [TCMDC-138818], for which the Unified cytotox in the series on HepG2 cells [2] (setting [10]) worked out at 4.95 µM. The IC50 in series [4] is 1380 nM. Besides, the “Is compound selective in assay? Pf FGAA active?” value in series [6] was 0 (0: NO).

As for `CC(C)(CN)c1nc(-c2ccc(Cl)c(O)c2)c(-c2ccncc2)[nH]1.Cl` [TCMDC-140369], the IC50 was 194 nM in series [1]; 1660 nM in the series with HepG2 cells [2]; 510 nM in series [3] (setting [8]); 514 nM in series [3] (setting [9]); 940 nM in series [4]. Also, the “HepG2 cytoxicity (Pb ODA, this manuscript)” value in the series on HepG2 cells [2] is recorded as 1.66 µM. Further, the Unified cytotox in the series with HepG2 cells [2] (setting [7]) is 1.91 µM. Besides, the “% inhibition, Replicate A” value in series [3] is given as 54.47%. Moreover, the “% inhibition, Replicate B” value in series [3] is reported as 53.78%. In addition, the “HepG2 cytoxicity (Pf FGAA screen)” value in the series on HepG2 cells [5] is given as 2.16 µM.

Turning to `COc1ccc2nccc(N3CCC(CCNCc4ccc5c(n4)NC(=O)CS5)CC3)c2n1.Cl` [TCMDC-141944], the IC50 in series [1] turned out to be 160 nM; with HepG2 cells [2], 14800 nM; in series [3] (setting [8]) it was 8880 nM; in series [3] (setting [9]), 8880 nM. For the same compound, the “HepG2 cytoxicity (Pb ODA, this manuscript)” value with HepG2 cells [2] was found to be 14.79 µM. The Unified cytotox with HepG2 cells [2] (setting [7]) is recorded as 14.79 µM. For the same compound, the “Is compound selective in assay? Pb ODA active?” value in series [3] is 0 (0: NO). The “% inhibition, Replicate A” value in series [3] came out at 58.34%. Besides, in series [3], the “% inhibition, Replicate B” value was 37.24%.

Consider `COc1c(F)ccc2ncc(Cl)c(CCN3CCC(NCc4ccc5c(n4)NC(=O)CS5)CC3)c12.Cl` [TCMDC-141955], for which the IC50 in series [1] turned out to be 1190 nM. In the series with HepG2 cells [2], the “HepG2 cytoxicity (Pb ODA, this manuscript)” value came to 23.99 µM and the IC50 turned out to be 24000 nM. Besides, in the series with HepG2 cells [2] (setting [7]), the Unified cytotox is reported as 23.99 µM. In series [3], the “Is compound selective in assay? Pb ODA active?” value is on record as 1 (1: YES); the “% inhibition, Replicate A” value was found to be 54.74%; the “% inhibition, Replicate B” value stood at 63.10%. Further, the IC50 in series [3] (setting [8]) amounted to 1900 nM. Also, the IC50 in series [3] (setting [9]) stood at 1900 nM.

On to `Cl.O=C1CSc2ccc(CNC3CCN(CCc4c(Cl)cnc5ccc(Cl)cc45)CC3)nc2N1` [TCMDC-141959], for which the IC50 in series [1] was 320 nM; in the series with HepG2 cells [2] it was 17800 nM; in series [3] (setting [8]), 4220 nM; in series [3] (setting [9]), 4220 nM. Besides, the “HepG2 cytoxicity (Pb ODA, this manuscript)” value in the series on HepG2 cells [2] is reported as 17.78 µM. The compound also showed a Unified cytotox with HepG2 cells [2] (setting [7]) of 17.78 µM. Also, in series [3], the “Is compound selective in assay? Pb ODA active?” value is listed as 0 (0: NO). Besides, the “% inhibition, Replicate A” value in series [3] was determined as 64.42%. Besides, the “% inhibition, Replicate B” value in series [3] turned out to be 30.41%.

Take `Cl.O=C1CSc2ccc(CNC3CCN(CCc4c(Cl)cnc5ccc(F)cc45)CC3)nc2N1` [TCMDC-141960]: in series [1], the IC50 is 207 nM. In addition, in the series with HepG2 cells [2], the “HepG2 cytoxicity (Pb ODA, this manuscript)” value turned out to be 38.90 µM and the IC50 turned out to be 38900 nM. In the series with HepG2 cells [2] (setting [7]), the Unified cytotox is recorded as 38.90 µM. In series [3], the “Is compound selective in assay? Pb ODA active?” value was 1 (1: YES); the “% inhibition, Replicate A” value amounted to 68.86%; the “% inhibition, Replicate B” value is recorded as 55.86%. In series [3] (setting [8]), the IC50 was 3040 nM. Further, the IC50 in series [3] (setting [9]) amounted to 3040 nM.

As to `Nc1nc(N)c2c(ccc3c2ccn3Cc2ccccc2)n1` [TCMDC-141977], the IC50 in series [1] was 1 nM. Also, in the series with HepG2 cells [2], the “HepG2 cytoxicity (Pb ODA, this manuscript)” value was determined as 0.15 µM and the IC50 amounted to 150 nM. The same compound came in with a Unified cytotox in the series with HepG2 cells [2] (setting [7]) of 0.15 µM. In series [3], the “Is compound selective in assay? Pb ODA active?” value is given as 0 (0: NO); the “% inhibition, Replicate A” value amounted to 47.17%; the “% inhibition, Replicate B” value is listed as 65.82%. In addition, in series [3] (setting [8]), the IC50 was 290 nM. Besides, in series [3] (setting [9]), the IC50 amounted to 286 nM.

Take `CCOc1ccc2[nH]c(C)cc(=NN=Cc3cccnc3)c2c1` [TCMDC-142047]: the IC50 in series [1] was 139 nM; in the series on HepG2 cells [2], 15100 nM; in series [3] (setting [8]), 4520 nM; in series [3] (setting [9]), 4520 nM. In addition, the “Unified cytotox” value in the series on HepG2 cells [2] (setting [11]) was 15.14 µM. The “Is compound selective in assay? Pb ODA active?” value in series [3] is reported as 0 (0: NO). Moreover, the “% inhibition, Replicate A” value in series [3] is recorded as 59.45%. Besides, the “% inhibition, Replicate B” value in series [3] was found to be 48.70%.

Turning to `CC1=CC(=O)[C@@H](O)[C@]2(C)[C@H]3[C@@]4(O)OC[C@@]35[C@@H](C[C@@H]12)OC(=O)C[C@H]5[C@@H](C)[C@H]4O` [TCMDC-142261], the IC50 was 109 nM in series [1], 26300 nM with HepG2 cells [2], 54.9 nM in series [3] (setting [8]) and 55 nM in series [3] (setting [9]). Further, in the series on HepG2 cells [2] (setting [11]), the “Unified cytotox” value came to 26.30 µM. In series [3], the “Is compound selective in assay? Pb ODA active?” value is reported as 1 (1: YES). Further, in series [3], the “% inhibition, Replicate A” value worked out at 102.04%. In series [3], the “% inhibition, Replicate B” value worked out at 101.98%.
